Assay results: US5356921A, “Imidazolylphenol compounds, pharmaceutical compositions containing them, and processes for preparing such compounds and compositions” (Gruenenthal GmbH, priority 1992, dated 1994)

Key:
Format in all cases: cell-based
12-lipoxygenase = assay: Inhibition of 12-HETE- and 5S,12S-DiHETE-synthesis induced by FMLP/merthiolate of human polymorphonuclear leukocytes and thrombocytes; details: coincubated human granulocytes and thrombocytes
Description: (§1) Human granulocytes were isolated by dextran-sedimentation and a Percoll gradient method and suspended in HBSS (Hanks buffered salt solution) at1×10^7 cells/mi. The cells were incubated in presence of a compound according to the invention or a solvent (ethanol and/or dimethyl sulfoxide) at 37° C. for 2 minutes, then with merthiolate (sodium ethylmercurithiosalicylate; 40 μM) for 2 minutes, and thereafter with FMLP (formyl-methionyl-leucylphenylalanine; 10^-7 M) for 15 minutes. After solid phase extraction the metabolites of arachidonic acid 5-HETE, LTB4, 6-trans-LTB4 -isomers, 20-OH-LTB4 and 20-COOH-LTB4 were identified by RP-HPLC [M. Haurand and L. Flohe in Biochem. Pharmacol. 38, 2129-37 (1989)].
Coincubations of human granulocytes and thrombocytes were carried out and investigated according to the inhibition of leukotriene-synthesis induced by FMLP/merthiolate. 12-HETE and 5S,12S-dihydroxy-HETE (5S,12S-DiHETE) were additionally included in the evaluation.

thromboxane synthase = biological target: T1, thromboxane synthase (Homo sapiens, UniProt P24557); assay: Inhibition of thromboxane synthase (human thrombocytes); details: for IC50: human thrombocytes, arachidonic acid 3.5 μM, read-out: IC50-Value, inhibition of thromboxane synthase (TXB2 formation); for inhibitory action on thromboxane synthase: in words
T1 construct: human thrombocytes were isolated from platelet-rich plasma; endogenous in cells; host or cells: human thrombocytes (platelets), intact
T1 sequence (P24557 1-533): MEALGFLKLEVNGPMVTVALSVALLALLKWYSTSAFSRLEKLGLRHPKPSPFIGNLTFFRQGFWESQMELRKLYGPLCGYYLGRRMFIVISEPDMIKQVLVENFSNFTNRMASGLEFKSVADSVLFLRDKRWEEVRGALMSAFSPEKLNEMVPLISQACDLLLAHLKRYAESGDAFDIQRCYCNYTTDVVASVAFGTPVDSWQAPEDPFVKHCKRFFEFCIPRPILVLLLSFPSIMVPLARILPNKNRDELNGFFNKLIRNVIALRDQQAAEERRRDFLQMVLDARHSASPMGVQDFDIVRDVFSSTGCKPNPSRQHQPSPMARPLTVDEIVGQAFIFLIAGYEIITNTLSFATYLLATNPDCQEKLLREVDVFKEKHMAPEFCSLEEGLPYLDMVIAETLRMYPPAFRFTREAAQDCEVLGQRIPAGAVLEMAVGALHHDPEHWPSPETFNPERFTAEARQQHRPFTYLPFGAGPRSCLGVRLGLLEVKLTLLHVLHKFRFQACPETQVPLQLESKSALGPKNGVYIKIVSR
Description: After addition of prostacyclin, human thrombocytes were isolated from platelet-rich plasma and suspended in Tyrode-Hepes buffer of pH 7.4 at 2×10^8 cells/ml. One ml aliquots of cells were incubated either with a compound according to the invention (0.1 to 100 μM) or a solvent (ethanol and/or dimethyl sulfoxide) at 37° C. for 3 minutes and thereafter with radioactively labelled arachidonic acid (3.5 μM) for 5 minutes. The reaction was stopped and the metabolites of arachidonic acid were extracted by adding methanol, chloroform and formic acid. After evaporation of the chloroform-containing layer to dryness under nitrogen, the residue obtained was resuspended in 50 μl chloroform and analyzed by thin layer chromatography. The distribution of the radioactivity of the different metabolites of arachidonic acid was measured using a TLC linear analyzer.

[1] = test system: Leukotriene-Synthesis Induced by FMLP/Merthiolate of Human Polymorphonuclear Leukocytes; assay: Inhibition of leukotriene-synthesis induced by FMLP/merthiolate of human polymorphonuclear leukocytes (reversibility); details: Leukocyte, human granulocytes, preincubated 5 minutes, centrifuged, resuspended, read-out: IC50-value of the reversible inhibitory action
Description: as §1
To examine the reversibility of the inhibitory action the cells were incubated with a compound according the invention or a solvent (ethanol and/or dimethyl sulfoxide) at 37° C. for 5 minutes, centrifuged at 300×g for 5 minutes and resuspended in 2 ml HBSS. Then the cells were incubated with merthiolate (40 μM) at 37° C. for 2 minutes and thereafter with FMLP (10^-7 M) for 15 minutes. The IC50 -value of the reversible inhibitory action was 2μmolar when the compound prepared according to Example 1 was used.

Row | IC50 (thromboxane synthase) | IC50 [1] | SMILES | inhibitory action on 12-lipoxygenase (12-lipoxygenase) | inhibitory action on thromboxane synthase (thromboxane synthase)
1 | 2800 nM | 2000 nM | NC(=O)N(O)Cc1ccc(Oc2ccc(-n3ccnc3)cc2)cc1 [Example 1, N-hydroxy-N-[4-[4-(1H-imidazol-1-yl)phenoxy]phenylmethyl]urea] | did not exert an inhibitory action on 12-lipoxygenase | same inhibitory potency as the hydrochloride of the imidazolylethoxybenzoic acid UK 37 248
2 | 2900 nM | – | CC(=O)N(O)Cc1ccc(Oc2ccc(-n3ccnc3)cc2)cc1 [Example 3, N-hydroxy-N-[4-[4-(1H-imidazol-1-yl)phenoxy]phenylmethyl]acetamide] | – | same inhibitory potency as the hydrochloride of the imidazolylethoxybenzoic acid UK 37 248
